Assay: HPLC assay on storage of sildenafil citrate with equal concentration of sucralose in pH adjusted 50% ethanol (Example 2)
Assay type: physicochemical
Protocol: At room temperature, a phosphate buffer was prepared by weighing 3.9 g of NaH2PO4.2H2O into a 500 mL volumetric flask and adding approximately 300 mL of purified water until the phosphate fully dissolved. The pH was then adjusted to 7 with the introduction of NaOH and dilute to the requisite volume by the further addition of purified water.
A 50% ethanol mixture was prepared by introducing either purified water, taken from a MilliQ™ unit or phosphate buffer, to equivalent volumes of Ph.Eur. grade absolute alcohol. The pH of the resultant mixture was then adjusted by using either NaOH 1N solutions and/or Sodium Citrate 1N solutions to reach predetermined pH values.
Samples of sucralose were then dissolved in the pH adjusted 50% ethanol, whilst stirred with a magnetic stirrer and a needle, to a predetermined concentration. […] After preparation, the solutions were each filtered through PDVF 0.22 micro filter of 13 mm in size and placed in polypropylene containers of adequate volume.
Before being placed on storage, and at time points 7 and 42 days, the concentration of sildenafil in the mixture was assayed using HPLC. The samples were then stored at either −20° C., 2-8° C. or 25° C. for periods of up to 42 days. Periodically, the samples were visually inspected for evidence of precipitation or crystallization. […]
The samples of 21 mg/ml at a pH of 5.6 were maintained in stability testing at 25° C. for a total of 285 days.

CCCc1nn(C)c2c(=O)nc(-c3cc(S(=O)(=O)N4CCN(C)CC4)ccc3OCC)[nH]c12.O=C(O)CC(O)(CC(=O)O)C(=O)O [sildenafil citrate, 1-[[3-(4,7-Dihydro-1-methyl-7-oxo-3-propyl-1H-pyrazolo[4,3-d]pyrimidin-5-yl)-4-ethoxyphenyl]sulfonyl]-4-methylpiperazine citrate salt]
concentration of sildenafil by HPLC (15 mg/ml, pH 5.0, Sodium Citrate, 2-8 ° C., Day 7): 11.05 mg/mL
concentration of sildenafil by HPLC (15 mg/ml, pH 5.0, Sodium Citrate, 25 ° C., Day 7): 14.89 mg/mL
concentration of sildenafil by HPLC (15 mg/ml, pH 5.0, Sodium Citrate, Day 0): 15.22 mg/mL
concentration of sildenafil by HPLC (15 mg/ml, pH 5.2, NaOH, 2-8 ° C., Day 7): 14.99 mg/mL
concentration of sildenafil by HPLC (15 mg/ml, pH 5.2, NaOH, 25 ° C., Day 7): 15.01 mg/mL
concentration of sildenafil by HPLC (15 mg/ml, pH 5.2, NaOH, Day 0): 15.05 mg/mL
concentration of sildenafil by HPLC (15 mg/ml, pH 5.24, NaOH, 50% ethanol/phosphate buffer, 2-8 ° C., Day 7): 14.97 mg/mL
concentration of sildenafil by HPLC (15 mg/ml, pH 5.24, NaOH, 50% ethanol/phosphate buffer, 25 ° C., Day 7): 15.01 mg/mL
concentration of sildenafil by HPLC (15 mg/ml, pH 5.24, NaOH, 50% ethanol/phosphate buffer, Day 0): 15.06 mg/mL
concentration of sildenafil by HPLC (15 mg/ml, pH 5.6, NaOH, 2-8 ° C., Day 7): 15.03 mg/mL
concentration of sildenafil by HPLC (15 mg/ml, pH 5.6, NaOH, 2-8 ° C., Day 42): 15.05 mg/mL
concentration of sildenafil by HPLC (15 mg/ml, pH 5.6, NaOH, 25 ° C., Day 7): 14.93 mg/mL
concentration of sildenafil by HPLC (15 mg/ml, pH 5.6, NaOH, 25 ° C., Day 42): 14.97 mg/mL
concentration of sildenafil by HPLC (15 mg/ml, pH 5.6, NaOH, 50% ethanol/phosphate buffer, 2-8 ° C., Day 7): 14.92 mg/mL
concentration of sildenafil by HPLC (15 mg/ml, pH 5.6, NaOH, 50% ethanol/phosphate buffer, 25 ° C., Day 7): 14.94 mg/mL
concentration of sildenafil by HPLC (15 mg/ml, pH 5.6, NaOH, 50% ethanol/phosphate buffer, Day 0): 14.96 mg/mL
concentration of sildenafil by HPLC (15 mg/ml, pH 5.6, NaOH, Day 0): 15.14 mg/mL
concentration of sildenafil by HPLC (15 mg/ml, pH 5.6, Sodium Citrate, 2-8 ° C., Day 7): 14.80 mg/mL
concentration of sildenafil by HPLC (15 mg/ml, pH 5.6, Sodium Citrate, 2-8 ° C., Day 42): 15.04 mg/mL
concentration of sildenafil by HPLC (15 mg/ml, pH 5.6, Sodium Citrate, 25 ° C., Day 7): 14.79 mg/mL
concentration of sildenafil by HPLC (15 mg/ml, pH 5.6, Sodium Citrate, 25 ° C., Day 42): 14.88 mg/mL
concentration of sildenafil by HPLC (15 mg/ml, pH 5.6, Sodium Citrate, Day 0): 14.92 mg/mL
concentration of sildenafil by HPLC (15 mg/ml, pH 6.01, NaOH, 50% ethanol/phosphate buffer, 2-8 ° C., Day 7): 14.69 mg/mL
concentration of sildenafil by HPLC (15 mg/ml, pH 6.01, NaOH, 50% ethanol/phosphate buffer, 25 ° C., Day 7): 14.83 mg/mL
concentration of sildenafil by HPLC (15 mg/ml, pH 6.01, NaOH, 50% ethanol/phosphate buffer, Day 0): 14.83 mg/mL
concentration of sildenafil by HPLC (15 mg/ml, pH 6.2, NaOH, 2-8 ° C., Day 7): 10.42 mg/mL
concentration of sildenafil by HPLC (15 mg/ml, pH 6.2, NaOH, 25 ° C., Day 7): 11.75 mg/mL
concentration of sildenafil by HPLC (15 mg/ml, pH 6.2, NaOH, Day 0): 15.14 mg/mL
concentration of sildenafil by HPLC (15 mg/ml, pH 6.2, Sodium Citrate, 2-8 ° C., Day 7): 11.11 mg/mL
concentration of sildenafil by HPLC (15 mg/ml, pH 6.2, Sodium Citrate, 25 ° C., Day 7): 12.10 mg/mL
concentration of sildenafil by HPLC (15 mg/ml, pH 6.2, Sodium Citrate, Day 0): 14.75 mg/mL
concentration of sildenafil by HPLC (18 mg/ml, pH 5.2, NaOH, 2-8 ° C., Day 7): 17.89 mg/mL
concentration of sildenafil by HPLC (18 mg/ml, pH 5.2, NaOH, 25 ° C., Day 7): 17.93 mg/mL
concentration of sildenafil by HPLC (18 mg/ml, pH 5.2, NaOH, Day 0): 18.23 mg/mL
concentration of sildenafil by HPLC (18 mg/ml, pH 5.2, Sodium Citrate, Day 0): 18.09 mg/mL
concentration of sildenafil by HPLC (18 mg/ml, pH 5.3, NaOH, 50% ethanol/phosphate buffer, 2-8 ° C., Day 7): 18.05 mg/mL
concentration of sildenafil by HPLC (18 mg/ml, pH 5.3, NaOH, 50% ethanol/phosphate buffer, 25 ° C., Day 7): 18.07 mg/mL
concentration of sildenafil by HPLC (18 mg/ml, pH 5.3, NaOH, 50% ethanol/phosphate buffer, Day 0): 18.07 mg/mL
concentration of sildenafil by HPLC (18 mg/ml, pH 5.6, NaOH, 2-8 ° C., Day 7): 17.86 mg/mL
concentration of sildenafil by HPLC (18 mg/ml, pH 5.6, NaOH, 2-8 ° C., Day 42): 18.07 mg/mL
concentration of sildenafil by HPLC (18 mg/ml, pH 5.6, NaOH, 25 ° C., Day 7): 17.86 mg/mL
concentration of sildenafil by HPLC (18 mg/ml, pH 5.6, NaOH, 25 ° C., Day 42): 18.07 mg/mL
concentration of sildenafil by HPLC (18 mg/ml, pH 5.6, NaOH, Day 0): 18.13 mg/mL
concentration of sildenafil by HPLC (18 mg/ml, pH 5.6, Sodium Citrate, 2-8 ° C., Day 7): 17.82 mg/mL
concentration of sildenafil by HPLC (18 mg/ml, pH 5.6, Sodium Citrate, 2-8 ° C., Day 42): 17.88 mg/mL
concentration of sildenafil by HPLC (18 mg/ml, pH 5.6, Sodium Citrate, 25 ° C., Day 7): 17.82 mg/mL
concentration of sildenafil by HPLC (18 mg/ml, pH 5.6, Sodium Citrate, 25 ° C., Day 42): 17.91 mg/mL
concentration of sildenafil by HPLC (18 mg/ml, pH 5.6, Sodium Citrate, Day 0): 18.19 mg/mL
concentration of sildenafil by HPLC (18 mg/ml, pH 5.63, NaOH, 50% ethanol/phosphate buffer, 2-8 ° C., Day 7): 18.01 mg/mL
concentration of sildenafil by HPLC (18 mg/ml, pH 5.63, NaOH, 50% ethanol/phosphate buffer, 25 ° C., Day 7): 18.04 mg/mL
concentration of sildenafil by HPLC (18 mg/ml, pH 5.63, NaOH, 50% ethanol/phosphate buffer, Day 0): 18.18 mg/mL
concentration of sildenafil by HPLC (18 mg/ml, pH 6.0, Sodium Citrate, 2-8 ° C., Day 7): 14.95 mg/mL
concentration of sildenafil by HPLC (18 mg/ml, pH 6.0, Sodium Citrate, 25 ° C., Day 7): 15.08 mg/mL
concentration of sildenafil by HPLC (18 mg/ml, pH 6.0, Sodium Citrate, Day 0): 17.76 mg/mL

Reference: patent publication US20220193081A1 (Ellamed IP & Services PTE. LTD., priority 2019, published 2022)
